Measured values from patent EP4624457A1, “I[…] DERIVATIVES, I[…] NEURODEGENERATIVE DISEASES” (Centre National de la Recherche Scientifique, priority 2024, dated 2025).
“And” between values parts separate entries of the source, which are not always exact repeats. Identical values can stand only once.

System: A2780 ovarian carcinoma cells
Assay: Phosphatidylserine exposure assay (FITC-Annexin V / propidium iodide, flow cytometry)
Assay type: cell-based
Procedure: • Figure 1 represents the chemical structure of ingrilimine according to compound (Illa) formula. • Figure 2 represents the cytotoxic activity of ingrilimine. A2780 ovarian and HT29 colorectal carcinoma cells were grown in RPMI 1640 supplemented with 10% fetal calf serum (FCS) and 1% glutamine. U87-MG glioblastoma cells were grown in Dulbecco minimal essential medium containing 4.5 g/L glucose, 10% FCS and 1% glutamine at 37 °C in a humidified atmosphere containing 5% CO2. For IC50 determination, the cells were seeded in 96-well plates (3 × 10^3 cells/well) containing 90 µL of growth medium. After 24 h of culture, the cells were treated with ingrilimine at 10 different final concentrations. Cell viability was determined by luminescence after 72 h incubation. (a) Effect of ingrilimine on A2780 ovarian carcinoma cells. (b) Effect of ingrilimine on U87-MG glioblastoma cells. (c) Effect of ingrilimine on U87-MG glioblastoma cells • Figure 3a-3f represent the mitochondrial dysfunction provoked by ingrilimine. […] Sector Q normal cells that accumulated the JC-1 dye (fluorescence emission 590 nm). […] (a) Non-treated cells incubated with the carrier (DMSO) for 24 h. (b) HCT116 cells incubated with 10 nN ingrilimine for 24 h. (c) HCT116 cells incubated with 250 nM ingrilimine for 24 h. (d) Non-treated cells incubated with the carrier (DMSO) for 48 h. (e) HCT116 cells incubated with 10 nN ingrilimine for 48 h. (f) HCT116 cells incubated with 250 nM ingrilimine for 48. Changes in fluorescence emission were recorded by flow cytometry using the JC-1 mithocondrial membrane potential-dependent fluorescent dye. NT = non-treated cells; IngX = ingrilimine. • Figure 4a-4f represents phosphatidylserine exposure provoked by ingrilimine. […] Quadrants D1 and D2 with dead or necrotic cells, quadrant D3 with normal cells and quadrant D4 with apoptotic cells following phosphatidylserine exposure. (a) Non-treated A2780 cells incubated with the carrier (DMSO) for 24h. (b) A2780 cells incubated with 10 nM ingrilimine for 24 h. (c) A2780 cells incubated with 250 nM ingrilimine for 24 h. (d) Non-treated A2780 cells incubated with the carrier (DMSO) for 48 h. (e) A2780 cells incubated with 10 nM ingrilimine for 48 h. (f) A2780 cells incubated with 250 nM ingrilimine for 48. […] exposure in A2780 cell was quantified by flow cytometry using FITC-Annexin V. Dead or necrotic cells were detected using the vital dye propridium iodide. NT = non-treated cells; IngX = ingrilimine. • Figure 5 represents the antagonistic activity of ingrilimine (named "IngX" in the figure) and portimine (named "Port A" in the figure) against nicotinic acetylcholine receptors recorded by two-electrodes voltage clamp electrophysiology on Xenopus laevis oocytes. Clamped Xenopus laevis oocytes having incorporated the muscle (α1)2βγδ nAChR subtype from Torpedo marmorata (filled squares), or expressing the neuronal α3β2 nAChR subtype from rat (filled triangles), or expressing the human neuronal α7 nAChR subtype (filled circles) were exposed to portimine (100 nM - 1 mM) for 45 seconds. […] A Xenopus laevis oocyte expressing the human α7 nAChR subtype was exposed to 100 µM acetylcholine triggering the immediate opening of the receptor's channel (black bold line) followed by the very-fast closure of the channel ([…]) that became insensitive to acetylcholine during the rest of the 5 seconds exposure (desensitization). When a Xenopus laevis oocyte expressing the human α7 nAChR subtype was exposed first to 10 nM ingrilimine for 45 seconds and then to a mixture (Mix) containing 10 nM ingrilimine and 100 µM acetylcholine, the receptor's channel was closed denoting a strong antagonistic activity of the tested toxin against the α7 nAChR subtype (dotted line). […]

For `C=CC1=C[C@@H]2C[C@@H](O)[C@@H](O)/C(C)=C/C/C(C)=C/CCC3=NCCC[C@]32CC1` [Ingrilimine, ingrilimine], the “Annexin V+/IP” value (10 nM, 24 h) was 1.1%, the “Annexin V+/IP” value (10 nM, 48 h) was 0.8% and the “Annexin V+/IP” value (50 nM, 24 h) was 3.4%. The “Annexin V+/IP” value (50 nM, 48 h) was 10%, the “Annexin V+/IP” value (100 nM, 24 h) was 9.8% and the “Annexin V+/IP” value (100 nM, 48 h) was 20.4%. For the same molecule, the “Annexin V+/IP” value (250 nM, 24 h) was 13.1%, the “Annexin V+/IP” value (250 nM, 24 h, listed as ingrilimine) was -13% and the “percentage of propidium iodide positive and annexin V positive” value (250 nM, 24 h, quadrant D2, late stage apoptotic, dead or necrotic cells) was 3.8%. The “Annexin V+/IP” value (250 nM, 48 h) was 31.3%, the “percentage of propidium iodide positive and annexin V positive” value (250 nM, 48 h, quadrant D2) was 17% and the “Annexin V+/IP” value (500 nM, 24 h) was 27.1%. For the same molecule, the viability at 0.25 µM (Homo sapiens, A2780, 48 h, read-out: viable cells) was 45%.
`C=CC1=C[C@@H]2[C@@H]3O[C@]4(CC[C@H](O4)[C@@H](C)C[C@@H](O)C3=O)C[C@H](O)C3=NCC[C@@]32CC1` [Portimine-A] was tested, and the “Annexin V+/IP” value (1 nM, 24 h, early apoptotic cells (annexin V positive, propidium iodide negative)) was 3.4%, the “Annexin V+/IP” value (1 nM, 48 h) was 1.7% and the “Annexin V+/IP” value (5 nM, 24 h) was 6.4%. For the same molecule, the “Annexin V+/IP” value (5 nM, 48 h) was 18.4%, the “Annexin V+/IP” value (10 nM, 24 h) was 13.1% and the “Annexin V+/IP” value (10 nM, 48 h) was 24.1%. The “Annexin V+/IP” value (20 nM, 24 h) was 13%, the “percentage of late-stage apoptotic cells and or necrotic cells” value (20 nM, 24 h) was 4.3% and the “percentage of late-stage apoptotic cells and or necrotic cells” value (20 nM, 48 h) was 15%. The “Annexin V+/IP” value (20 nM, 48 h, listed as Portimine) was 39% and 39.3%, the “Annexin V+/IP” value (50 nM, 24 h) was 22.8% and the viable cells (50 nM, 48 h treatment, quadrant D3) was 40%.
